From patent US8057829B2, “Methods for repelling insects using sesquiterpene hydrocarbons and their derivatives” (Sterling International Inc., priority 2008, dated 2011)

Tests used:
[1] = system: housefly (Musca domestica) antenna; assay: GC-EAD antennal response, housefly; conditions: synthetic mixture, about 100 ng of each compound
[2] = system: Aedes aegypti; assay: K&D module behavioral bioassay (topical repellency, biting); assay type: in vivo
In short: (§1)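 In vitro six-cell K&D module over 38 °C CPDA+ATP artificial blood under collagen membrane, topped by nylon organdy treated with five ethanol dilutions of test chemical (ethanol blank; DEET ca. 10 μg/cm^2 positive control). Five starved (24 h) 5–10 d-old females per cell. Biting counted over 3 min, three replicates per chemical and species.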

[3] = system: Anopheles stephensi; assay: as above; assay type: in vivo
In short: as §1

[4] = system: Aedes Aegypti, Anopheles stephensi and the sand fly P. papatasi; assay: Y-tube bioassay, statements pooled for the three species; assay type: in vivo, Aedes aegypti; Anopheles stephensi; Phlebotomus papatasi; conditions: clove oil ca. 10 mg/day, patchouli oil 15 mg/d, sesquiterpenes 1 to 35 mg/d release
Protocol: Aegypti and An. stephensi, and one species of sand fly, P. papatasi. Both the mosquitoes and the sand flies used in the study were from colonies maintained at the Walter Reed Army Institute of Research, Department of Entomology, Silver Spring, Md. This Y-tube bioassay system, equipped with CO2-enriched air (ca. 1 l/min) as an attractant, was made from three clear acrylic tubes (4″ diameter; 12″ length) with symmetrical 120° angles among the three tube arms; and a screen butterfly valve on the top part of the bottom releasing tube. These spatial repellency tests were carried out during 8:00 am-12:00 pm (photophase) time period for Ae. aegypti and 1:00-5:00 pm (shifted scotophase) time period for the species of night-flying mosquitoes and sand fly in a temperature and humidity controlled testing room (23-25° C. and 20-40% RH). Female mosquitoes or sand flies were stored at ˜25-26° C., 50-89% RH, 12:12 hr. (L/D), fed with 10% sucrose solution before testing. The candidate chemical (individual or mixture) dispenser and a blank control were placed in the upper left or right arm of the Y-tube before releasing 25-40, 6 to 10 day-old female mosquitoes (or 3 to 10 day-old sand flies) into the bottom tube via a small hole. After a 30-60 sec acclimation period, the butterfly screen valve (door) on the top of the bottom tube was opened. After 10 min., the valve was closed and the numbers of mosquitoes or sand flies in each arm (including the bottom tube) were counted. In order to minimize the position effect, the same experiment was repeated once with the treatment and blank control arms shifted using a new (clean) Y-tube olfactometer and a new batch of mosquitoes/sand flies. Data from these two replicates were pooled for χ2 goodness of fit test (df=1) between the treatment and blank control.

[5] = female housefly antenna, FIG. 3
[6] = 10 μg/cm^2, DEET values are the positive control run with the chemical

Row | Structure (SMILES) | GC-EAD antennal activity [1, 5] | % of biting (±SE) (N = 3) [2, 6] | % of biting (±SE) (N = 3) ([2]; 100 μg/cm^2) | % of biting (±SE) (N = 3) ([2]; 500 μg/cm^2) [a %] | % of biting (±SE) (N = 3) ([2]; 1000 μg/cm^2) [a %] | % of biting (±SE) (N = 3) [3, 6] | % of biting (±SE) (N = 3) ([3]; 100 μg/cm^2) | % of biting (±SE) (N = 3) ([3]; 500 μg/cm^2) [a %] | % of biting (±SE) (N = 3) ([3]; 1000 μg/cm^2) [a %] | spatial repellency, in words [4] | GC-EAD antennal activity ([1]; male housefly antenna, FIG. 4)
1 | C=C1C2CCC3[C@H]2C(C)(C)CCC[C@]13C (single isomer, unassigned; (+)) [(+)-Longifolene] | active | 53 ± 7c % | 33 ± 13bc % | 0 ± 0 | 0 ± 0 | 53 ± 7c % | 33 ± 7bc % | 0 ± 0 | 0 ± 0 | showed spatial repellency effects | 
2 | C=C1CC/C=C(\C)CC[C@@H]2[C@@H]1CC2(C)C [β-Caryophyllene, β-caryophyllene] | active | 40 ± 12b % | 33 ± 24b % | 0 ± 0 | 0 ± 0 | 47 ± 18bc % | 40 ± 12bc % | 0 ± 0 | 7 ± 7 | showed spatial repellency effects | EAD-active
3 | C=C1CC/C=C(/C)CC[C@@H]2[C@@H]1CC2(C)C [Isocaryophyllene, isocaryophyllene] |  | 33 ± 7b % | 0 ± 0a % | 0 ± 0 | 0 ± 0 | 33 ± 13b % | 7 ± 7a % | 0 ± 0 | 0 ± 0 | showed spatial repellency effects | EAD-active
